According to US8758816B2, “Compositions comprising azelastine and methods of use thereof” (priority 2004, dated 2014):

System: patients with seasonal allergic rhinitis (SAR)
Test: MP 428 two-week randomized double-blind study: Total Nasal Symptom Score (TNSS), change from baseline
Assay type: in vivo, human
Design: key to Change from Baseline in AM TNSS, Mean / Change from Baseline in AM TNSS, LS Mean / Change from Baseline in AM TNSS, Median: TNSS sum of 4 symptoms each 0-3 (0=none, 3=severe); change from baseline
Experimental: A two-week, randomized, double-blind study, which evaluated the effects of the co-administration of ASTELIN® (azelastine hydrochloride (HCl)) and FLONASE® (fluticasone propionate) compared to either product alone in patients with seasonal allergic rhinitis (SAR) was conducted during the 2006 Texas mountain cedar season. After a 5-day placebo lead-in period, 151 patients with moderate-to-severe allergic rhinitis symptoms were randomized to either: (1) (49 total patients) ASTELIN® (azelastine hydrochloride (HCl)) plus placebo saline nasal spray 2 sprays per nostril, 15 minutes apart, twice daily (AM & PM); (2) (50 total patients) FLONASE® (fluticasone propionate) plus placebo saline nasal spray, 2 sprays per nostril, 15 minutes apart, once daily (AM) and two sessions of placebo saline nasal spray, 2 sprays per nostril, 15 minutes apart (PM); or (3) (52 total patients) the co-administration of ASTELIN® (azelastine hydrochloride (HCl)) 2 sprays per nostril plus FLONASE® (fluticasone propionate) 2 sprays per nostril (AM), 15 minutes apart, and ASTELIN® (azelastine hydrochloride (HCl)) 2 sprays per nostril plus placebo saline nasal spray, 15 minutes apart, (PM) for a 2-week double-blind treatment period.
The primary efficacy variable was the change from baseline in the Total Nasal Symptom Score (TNSS), which comprised sneezing, itchy nose, runny nose, and nasal congestion (individual symptoms scores were assigned a value between 0 and 3, where 0=no symptoms and 3=severe symptoms). This study was not statistically designed to assess the differences between ASTELIN® and FLONASE®.

[1] = Day 2, Intent-to-Treat Population
[2] = Day 3, Intent-to-Treat Population
[3] = Day 4, Intent-to-Treat Population
[4] = Day 5, Intent-to-Treat Population

CCC(=O)O[C@]1(C(=O)SCF)[C@H](C)C[C@H]2[C@@H]3C[C@H](F)C4=CC(=O)C=C[C@]4(C)[C@@]3(F)[C@@H](O)C[C@@]21C [Fluticasone, fluticasone propionate]
Primary Reason for Discontinuation From Study: Treatment Failure (All Randomized Patients): 1 (2.0) N (%)
Change from Baseline in AM TNSS, LS Mean [1]: −1.58
Change from Baseline in AM TNSS, Mean [1]: −1.65
Change from Baseline in AM TNSS, Median [1]: −1.00
Change from Baseline in AM and PM Combined TNSS, Mean [1]: −3.24
Change from Baseline in AM and PM Combined TNSS, Median [1]: −2.00
Change from Baseline in PM TNSS, LS Mean [1]: −1.54
Change from Baseline in PM TNSS, Mean [1]: −1.59
Change from Baseline in PM TNSS, Median [1]: −1.00
Percent Change from Baseline in AM TNSS, LS Mean [1]: −16.43%
Percent Change from Baseline in AM TNSS, Mean [1]: −17.21%
Percent Change from Baseline in AM TNSS, Median [1]: −11.11%
Percent Change from Baseline in AM and PM Combined TNSS, LS Mean [1]: −16.35%
Percent Change from Baseline in AM and PM Combined TNSS, Mean [1]: −16.91%
Percent Change from Baseline in AM and PM Combined TNSS, Median [1]: −12.46%
Percent Change from Baseline in PM TNSS, LS Mean [1]: −16.05%
Percent Change from Baseline in PM TNSS, Mean [1]: −16.52%
Percent Change from Baseline in PM TNSS, Median [1]: −11.11%
Change from Baseline in AM and PM Combined TNSS, LS Mean (Day 2, Intent-to-Treat Population, ANCOVA model): −3.12
Change from Baseline in AM and PM Combined TNSS, LS Mean (Day 2, Per-Protocol Population): −3.10
Change from Baseline in AM and PM Combined TNSS, Mean (Day 2, Per-Protocol Population): −3.27
Change from Baseline in AM and PM Combined TNSS, Median (Day 2, Per-Protocol Population): −2.00
Percent Change from Baseline in AM and PM Combined TNSS, LS Mean (Day 2, Per-Protocol Population): −16.38%
Percent Change from Baseline in AM and PM Combined TNSS, Mean (Day 2, Per-Protocol Population): −17.11%
Percent Change from Baseline in AM and PM Combined TNSS, Median (Day 2, Per-Protocol Population): −12.46%
Change from Baseline in AM TNSS, LS Mean [2]: −2.01
Change from Baseline in AM TNSS, Mean [2]: −2.04
Change from Baseline in AM TNSS, Median [2]: −1.50
Change from Baseline in AM and PM Combined TNSS, Mean [2]: −4.12
Change from Baseline in AM and PM Combined TNSS, Median [2]: −3.20
Change from Baseline in PM TNSS, LS Mean [2]: −2.08
Change from Baseline in PM TNSS, Mean [2]: −2.08
Change from Baseline in PM TNSS, Median [2]: −1.80
Percent Change from Baseline in AM TNSS, LS Mean [2]: −21.72%
Percent Change from Baseline in AM TNSS, Mean [2]: −22.09%
Percent Change from Baseline in AM TNSS, Median [2]: −14.29%
Percent Change from Baseline in AM and PM Combined TNSS, LS Mean [2]: −22.17%
Percent Change from Baseline in AM and PM Combined TNSS, Mean [2]: −22.26%
Percent Change from Baseline in AM and PM Combined TNSS, Median [2]: −16.67%
Percent Change from Baseline in PM TNSS, LS Mean [2]: −22.22%
Percent Change from Baseline in PM TNSS, Mean [2]: −22.28%
Percent Change from Baseline in PM TNSS, Median [2]: −20.00%
Change from Baseline in AM and PM Combined TNSS, LS Mean (Day 3, Intent-to-Treat Population, ANCOVA model): −4.09
Change from Baseline in AM and PM Combined TNSS, LS Mean (Day 3, Per-Protocol Population): −4.18
Change from Baseline in AM and PM Combined TNSS, Mean (Day 3, Per-Protocol Population): −4.25
Change from Baseline in AM and PM Combined TNSS, Median (Day 3, Per-Protocol Population): −3.47
Percent Change from Baseline in AM and PM Combined TNSS, LS Mean (Day 3, Per-Protocol Population): −22.68%
Percent Change from Baseline in AM and PM Combined TNSS, Mean (Day 3, Per-Protocol Population): −22.87%
Percent Change from Baseline in AM and PM Combined TNSS, Median (Day 3, Per-Protocol Population): −16.67%
Change from Baseline in AM TNSS, LS Mean [3]: −2.43
Change from Baseline in AM TNSS, Mean [3]: −2.41
Change from Baseline in AM TNSS, Median [3]: −2.67
Change from Baseline in AM and PM Combined TNSS, Mean [3]: −4.53
Change from Baseline in AM and PM Combined TNSS, Median [3]: −4.17
Change from Baseline in PM TNSS, LS Mean [3]: −2.10
Change from Baseline in PM TNSS, Mean [3]: −2.12
Change from Baseline in PM TNSS, Median [3]: −1.80
Percent Change from Baseline in AM TNSS, LS Mean [3]: −25.32%
Percent Change from Baseline in AM TNSS, Mean [3]: −25.07%
Percent Change from Baseline in AM TNSS, Median [3]: −27.27%
Percent Change from Baseline in AM and PM Combined TNSS, LS Mean [3]: −23.75%
Percent Change from Baseline in AM and PM Combined TNSS, Mean [3]: −23.67%
Percent Change from Baseline in AM and PM Combined TNSS, Median [3]: −23.60%
Percent Change from Baseline in PM TNSS, LS Mean [3]: −21.91%
Percent Change from Baseline in PM TNSS, Mean [3]: −22.22%
Percent Change from Baseline in PM TNSS, Median [3]: −20.00%
Change from Baseline in AM and PM Combined TNSS, LS Mean (Day 4, Intent-to-Treat Population, ANCOVA model): −4.53
Change from Baseline in AM and PM Combined TNSS, LS Mean (Day 4, Per-Protocol Population): −4.61
Change from Baseline in AM and PM Combined TNSS, Mean (Day 4, Per-Protocol Population): −4.63
Change from Baseline in AM and PM Combined TNSS, Median (Day 4, Per-Protocol Population): −4.17
Percent Change from Baseline in AM and PM Combined TNSS, LS Mean (Day 4, Per-Protocol Population): −24.10%
Percent Change from Baseline in AM and PM Combined TNSS, Mean (Day 4, Per-Protocol Population): −24.08%
Percent Change from Baseline in AM and PM Combined TNSS, Median (Day 4, Per-Protocol Population): −23.60%
Change from Baseline in AM TNSS, LS Mean [4]: −2.59
Change from Baseline in AM TNSS, Mean [4]: −2.57
Change from Baseline in AM TNSS, Median [4]: −2.00
Change from Baseline in AM and PM Combined TNSS, Mean [4]: −5.16
Change from Baseline in AM and PM Combined TNSS, Median [4]: −4.40
Change from Baseline in PM TNSS, LS Mean [4]: −2.61
Change from Baseline in PM TNSS, Mean [4]: −2.59
Change from Baseline in PM TNSS, Median [4]: −2.00
Percent Change from Baseline in AM TNSS, LS Mean [4]: −26.91%
Percent Change from Baseline in AM TNSS, Mean [4]: −26.62%
Percent Change from Baseline in AM TNSS, Median [4]: −19.23%
Percent Change from Baseline in AM and PM Combined TNSS, LS Mean [4]: −27.20%
